# pIC50: −log10 of the molar value.
# Molecular target: T1, androgen receptor (Homo sapiens, UniProt P10275)
# T1 sequence (P10275 1-920 Q868H): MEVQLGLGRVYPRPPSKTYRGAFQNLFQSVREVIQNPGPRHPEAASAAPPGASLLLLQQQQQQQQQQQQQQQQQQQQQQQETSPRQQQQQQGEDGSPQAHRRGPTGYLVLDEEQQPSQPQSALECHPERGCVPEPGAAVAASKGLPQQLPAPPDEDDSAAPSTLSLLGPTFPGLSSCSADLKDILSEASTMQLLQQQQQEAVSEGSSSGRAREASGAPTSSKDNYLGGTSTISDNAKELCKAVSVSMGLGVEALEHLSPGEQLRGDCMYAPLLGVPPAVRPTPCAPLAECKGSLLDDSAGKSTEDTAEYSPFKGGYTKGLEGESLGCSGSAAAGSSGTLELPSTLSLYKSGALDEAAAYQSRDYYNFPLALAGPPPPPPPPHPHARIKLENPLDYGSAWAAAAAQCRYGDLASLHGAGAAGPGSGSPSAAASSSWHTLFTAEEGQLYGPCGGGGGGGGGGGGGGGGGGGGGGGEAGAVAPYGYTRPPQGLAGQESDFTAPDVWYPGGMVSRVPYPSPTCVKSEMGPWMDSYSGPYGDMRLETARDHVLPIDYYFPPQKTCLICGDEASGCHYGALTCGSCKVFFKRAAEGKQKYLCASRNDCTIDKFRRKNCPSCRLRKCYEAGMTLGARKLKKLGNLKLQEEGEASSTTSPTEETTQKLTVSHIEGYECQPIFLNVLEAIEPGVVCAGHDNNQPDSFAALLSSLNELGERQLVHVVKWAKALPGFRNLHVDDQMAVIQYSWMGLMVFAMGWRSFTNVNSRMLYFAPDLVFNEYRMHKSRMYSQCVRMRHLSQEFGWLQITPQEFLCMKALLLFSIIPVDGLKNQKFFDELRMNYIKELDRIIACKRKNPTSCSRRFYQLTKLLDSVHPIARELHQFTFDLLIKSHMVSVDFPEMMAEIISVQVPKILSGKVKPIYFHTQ
# Experiment: AR Antagonist Cell Assay (MMTV-luciferase reporter, DHT-stimulated)
# Assay type: cell-based
# Details: MDA-MB453-MMTV clone 54-19 cells; antagonism of 100 pM DHT, 17 hr, luciferase readout
# Method: The compounds ability to antagonize the effects of androgen on the androgen receptor were determined in the protocol described immediately below.
# Experimental Procedure for AR Antagonist Cell Assay
# Cell line: MDA-MB453-MMTV clone 54–19. This cell line is a stable transfected cell line with MDA-MB453 cell background (human breast tumor cell expressing high level of androgen receptor). A MMTV minimal promoter containing ARE was first cloned in front of a firefly luciferase reporter gene. Then the cascade was cloned into transfection vector pUV120puro. Electroporation method was used for transfecting MDA-MB-453 cell. Puromycin resistant stable cell line was selected.
# Cell Culture Media and Reagents:
# Culture medium: DMEM (high glucose, Gibco cat #: 11960-044), 10% FBS, and 1% L-glutamine
# Plating medium: DMEM (phenol red free), 10% charcoal treated HyClone serum, 1% L-glutamine
# Assay medium: DMEM (phenol red free), 1% charcoal treated HyClone serum, 1% L-glutamine, and 1% penicillin/streptomycin
# 3× luciferase buffer: 2% beta-mercaptoethanol, 0.6% ATP, 0.0135% luciferine in cell lysis buffer
# • 1. Cells are maintained in culture medium, splitting cells when they reach 80–90% confluence • 2. To test compounds, 10,000 cells/well are plated to opaque 96 cell culture plate in 100 ul/well plating medium, culture for overnight at 37° C. in cell culture incubator • 3. Carefully remove plating medium, then add 80 ul/well of pre-warmed assay medium, add 10 ul/well testing compound (final concentration at 10 uM or 1 uM), incubate at 37° C. for 30 minutes • 4. Add 10 ul/well freshly prepared DHT (final concentration at 100 pM) to each well, incubate at 37° C. for 17 hr (overnight) • 5. Add 50 ul/well 3× luciferase buffer, incubate at room temperature for 5 minutes, then count on Luminometer.
# The fold induction over background by 100 pM DHT in the absence of testing compounds is standardized as 100% and experimental result is expressed as percentage of inhibition by testing compounds.
row,Structure (SMILES),pIC50
1,"O=c1cc(C(F)(F)F)c2cc(Cc3ccc(S(=O)(=O)Nc4ccccc4N4CCCCC4)cc3)ccc2o1 [Example 146, 4-(2-Oxo-4-trifluoromethyl-2H-chromen-6-ylmethyl)-N-(2-piperidin-1-ylphenyl)-benzenesulfonamide]",5.32
2,"O=c1cc(C(F)(F)F)c2cc(Cc3ccc(S(=O)(=O)Nc4ccc(CO)cc4)cc3)ccc2o1 [Example 124, N-(4-Hydroxymethylphenyl)-4-(2-oxo-4-trifluoromethyl-2H-chromen-6-ylmethyl)-benzenesulfonamide]",5.64
3,"O=c1cc(C(F)(F)F)c2cc(Cc3ccc(S(=O)(=O)Nc4ccccc4Br)cc3)ccc2[nH]1 [Example 40, N-(2-Bromophenyl)-4-(2-oxo-4-trifluoromethyl-1,2-dihydroquinolin-6-ylmethyl)-benzenesulfonamide]",5.25
4,"O=c1cc(C(F)(F)F)c2cc(Cc3ccc(S(=O)(=O)NCCc4ccc(Cl)cc4)cc3)ccc2[nH]1 [Example 74, N-[2-(4-Chlorophenyl)ethyl]-4-(2-oxo-4-trifluoromethyl-1,2-dihydroquinolin-6-ylmethyl)-benzenesulfonamide]",< 5.00
5,"O=c1cc(C(F)(F)F)c2cc(Cc3ccc(S(=O)(=O)Nc4ccc(-n5ccc(C(F)(F)F)n5)cc4)cc3)ccc2[nH]1 [Example 49, 4-(2-Oxo-4-trifluoromethyl-1,2-dihydroquinolin-6-ylmethyl)-N-[4-(3-trifluoromethylpyrazol-1-yl)phenyl]-benzenesulfonamide]",< 5.00
6,"CN(CCc1ccccn1)S(=O)(=O)c1ccc(Cc2ccc3[nH]c(=O)cc(C(F)(F)F)c3c2)cc1 [Example 13, N-Methyl-4-(2-oxo-4-trifluoromethyl-1,2-dihydroquinolin-6-ylmethyl)-N-(2-pyridin-2-ylethyl)benzenesulfonamide]",< 5.00
7,"O=c1cc(C(F)(F)F)c2cc(Cc3ccc(S(=O)(=O)Nc4cc(F)c(F)c(F)c4)cc3)ccc2[nH]1 [Example 35, 4-(2-Oxo-4-trifluoromethyl-1,2-dihydroquinolin-6-ylmethyl)-N-(3,4,5-trifluorophenyl)-benzenesulfonamide]",< 5.00
8,"CC(CNS(=O)(=O)c1ccc(Cc2ccc3oc(=O)cc(C(F)(F)F)c3c2)cc1)c1ccccc1 (centres unmarked) [Example 180, 4-(2-Oxo-4-trifluoromethyl-2H-chromen-6-ylmethyl)-N-(2-phenylpropyl)-benzenesulfonamide]",5.69
9,CCCCN(CC)S(=O)(=O)c1ccc(Cc2ccc3[nH]c(=O)cc(C(F)(F)F)c3c2)cc1 [Example 6],< 5.00
10,"CCCN(CC1CC1)S(=O)(=O)c1ccc(Cc2ccc3[nH]c(=O)cc(C(F)(F)F)c3c2)cc1 [Example 9A, N-Cyclopropylmethyl-4-(2-oxo-trifluoromethyl-1,2-dihydroquinolin-6-ylmethyl)-N-propylbenzenesulfonamide]",5.20
11,"O=c1cc(C(F)(F)F)c2cc(Cc3ccc(S(=O)(=O)N(CCO)Cc4ccccc4)cc3)ccc2[nH]1 [Example 9, N-Benzyl-N-(2-hydroxyethyl)-4-(2-oxo-4-trifluoromethyl-1,2-dihydroquinolin-6-ylmethyl)benzenesulfonamide]",< 5.00
12,"COc1cccc(NS(=O)(=O)c2ccc(Cc3ccc4oc(=O)cc(C(F)(F)F)c4c3)cc2)c1 [Example 156, N-(3-Methoxyphenyl)-4-(2-oxo-4-trifluoromethyl-2H-chromen-6-ylmethyl)benzene-sulfonamide]",5.76
13,"O=c1cc(C(F)(F)F)c2cc(Cc3ccc(S(=O)(=O)NCc4ccc(Cl)cc4Cl)cc3)ccc2[nH]1 [Example 85, N-(2,4-Dichlorobenzyl)-4-(2-oxo-4-trifluoromethyl-1,2-dihydroquinolin-6-ylmethyl)-benzenesulfonamide]",~5.00
14,"CC(C)N(c1ccccc1)c1ccc(NS(=O)(=O)c2ccc(Cc3ccc4[nH]c(=O)cc(C(F)(F)F)c4c3)cc2)cc1 [Example 48, N-[4-(Isopropylphenylamino)-phenyl]-4-(2-oxo-4-trifluoromethyl-1,2-dihydroquinolin-6-ylmethyl)-benzenesulfonamide]",5.30
15,"O=c1cc(C(F)(F)F)c2cc(Cc3ccc(S(=O)(=O)NCc4cc(C(F)(F)F)ccc4F)cc3)ccc2o1 [Example 204, N-(2-Fluoro-5-trifluoromethylbenzyl)-4-(2-oxo-4-trifluoromethyl-2H-chromen-6-ylmethyl)benzene-sulfonamide]",< 5.00
16,"CCc1ccc(NS(=O)(=O)c2ccc(Cc3ccc4oc(=O)cc(C(F)(F)F)c4c3)cc2)cc1 [Example 120, N-(4-Ethylphenyl)-4-(2-oxo-4-trifluoromethyl-2H-chromen-6-ylmethyl)-benzenesulfonamide]",5.88
17,"O=c1cc(C(F)(F)F)c2cc(Cc3ccc(S(=O)(=O)Nc4ccccc4Cl)cc3)ccc2[nH]1 [Example 18, N-(2-Chlorophenyl)-4-(2-oxo-4-triftuoromethyl-1,2-dihydroquinolin-6-ylmethyl)-benzenesulfonamide]",5.50
18,"O=c1cc(C(F)(F)F)c2cc(Cc3ccc(S(=O)(=O)Nc4ccc5c(c4)CCC5)cc3)ccc2[nH]1 [Example 20, N-Indan-5-yl-4-(2-oxo-4-trifluoromethyl-1,2-dihydroquinolin-6-ylmethyl)-benzenesulfonamide]",< 5.00
19,"CN1CCN(CCCNS(=O)(=O)c2ccc(Cc3ccc4[nH]c(=O)cc(C(F)(F)F)c4c3)cc2)CC1 [Example 75, N-[3-(4-Methylpiperazin-1-yl)propyl]-4-(2-oxo-4-trifluoromethyl-1,2-dihydroquinolin-6-ylmethyl)-benzenesulfonamide]",5.17
20,"CC(=O)c1cccc(NS(=O)(=O)c2ccc(Cc3ccc4oc(=O)cc(C(F)(F)F)c4c3)cc2)c1 [Example 129, N-(3-Acetylphenyl)-4-(2-oxo-4-trifluoromethyl-2H-chromen-6-ylmethyl)benzenesuifonamide]",5.67
21,"O=c1cc(C(F)(F)F)c2cc(Cc3ccc(S(=O)(=O)NCc4ccc(F)cc4)cc3)ccc2o1 [Example 173, N-(4-Fluorobenzyl)-4-(2-oxo-4-trifluoromethyl-2H-chromen-6-ylmethyl)benzenesulfonamide]",5.11
22,"CCCCN(C)S(=O)(=O)c1ccc(Cc2ccc3[nH]c(=O)cc(C(F)(F)F)c3c2)cc1 [Example 9B, N-Butyl-N-methyl-4-(2-oxo-4-trifluoromethyl-1,2-dihydroquinolin-6-ylmethyl)benzenesulfonamide]",< 5.00
23,"O=c1cc(C(F)(F)F)c2cc(Cc3ccc(S(=O)(=O)Nc4ccc(Cl)cc4)cc3)ccc2o1 [Example 135, N-(4-Chlorophenyl)-4-(2-oxo-4-trifluoromethyl-2H-chromen-6-ylmethyl)benzenesulfonamide]",5.70
24,"CC(C)Oc1cccc(NS(=O)(=O)c2ccc(Cc3ccc4oc(=O)cc(C(F)(F)F)c4c3)cc2)c1 [Example 142, N-(3-Isopropoxyphenyl)-4-(2-oxo-4-trifluoromethyl-2H-chromen-6-ylmethyl)-benzenesulfonamide]",~5.00
25,"CCc1cccc(NS(=O)(=O)c2ccc(Cc3ccc4[nH]c(=O)cc(C(F)(F)F)c4c3)cc2)c1 [Example 17, N-(3-Ethylphenyl)-4-(2-oxo-4-trifluoromethyl-1,2-dihydroquinolin-6-ylmethyl)benzenesulfonamide]",< 5.00
26,"CC(C)c1ccc(NS(=O)(=O)c2ccc(Cc3ccc4oc(=O)cc(C(F)(F)F)c4c3)cc2)cc1 [Example 130, N-(4-Isopropylphenyl)-4-(2-oxo-4-trifluoromethyl-2H-chromen-6-ylmethyl)-benzenesulfonamide]",5.41

# From US7098340B2, “Benzyl sulfonamide derivatives” (Warner Lambert Company LLC, priority 2003, dated 2006)
